Among the data in ChEMBL document CHEMBL5579799, “Synthesis and biological evaluation of novel 18F-labeled 2,4-diaminopyrimidine derivatives for detection of ghrelin receptor in the brain” (Bioorg Med Chem Lett, 2024) are Ki and Kp values, retold here.

Each structure is given as a SMILES string. A value given as a limit tells only on which side of the number the result lay.

The target of data set [1] is Growth hormone secretagogue receptor type 1 (Homo sapiens, UniProt Q92847).
Description: Displacement of [125I]ghrelin from human GHSR assessed as inhibition constant by competitive binding assay
The nature of data set [2]: Ratio of drug concentration in rat brain to plasma at po administration measured after 1 hr.

Growth hormone secretagogue receptor type 1, sequence (Q92847 whole entry): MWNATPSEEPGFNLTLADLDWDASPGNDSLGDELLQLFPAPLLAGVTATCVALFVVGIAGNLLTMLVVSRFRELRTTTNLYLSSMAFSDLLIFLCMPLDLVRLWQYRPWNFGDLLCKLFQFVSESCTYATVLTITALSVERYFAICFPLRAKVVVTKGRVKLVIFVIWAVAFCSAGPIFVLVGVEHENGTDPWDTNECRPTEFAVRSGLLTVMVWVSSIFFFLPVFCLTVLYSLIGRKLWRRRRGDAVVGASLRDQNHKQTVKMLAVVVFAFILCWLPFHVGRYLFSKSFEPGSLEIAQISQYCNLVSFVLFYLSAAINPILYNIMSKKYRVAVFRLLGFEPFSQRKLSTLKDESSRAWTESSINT

`CCc1nc(N)nc(N)c1-c1ccc(NCc2ccc(OCCF)cc2)cc1` gave a Ki in data set [1] greater than 5000 nM.

As to `Nc1nc(N)c(-c2ccc(NCc3ccc(Cl)cc3)cc2)c(COCc2ccccc2)n1`, the Kp at 1 h in data set [2] turned out to be 3.05. Moreover, the inhibition constant Ki in data set [1] amounted to 108 nM.
